{"source": "patent US20250108036A1", "about": "“COMPOSITIONS FOR REMOVING SENESCENT CELLS AND USES THEREOF” (LIFECEUTIX CO., LTD., priority 2021, published 2025)", "key": {"[1]": {"system": "normally proliferating cancer (A549) cells", "experiment": "survival of normally proliferating A549 cancer cells treated with medium supernatant of compound-killed cancer cells (Example 14, Table 70)", "assay_type": "cell-based, human", "method": "In the same way as Examples 12 and 13, senescence of cancer (A549) cells was induced by treatment with doxorubicin or the control group (DMSO), and the cells were cultured. […] In the same manner as in Example 13, the medium supernatants comprising secreted fluid from normally proliferating and senescent cancer cells was obtained. Normally proliferating and senescent-induced cancer cells were treated with the medium supernatants."}, "[2]": {"system": "urea, creatinine, Agtr1a mRNA", "experiment": "kidney damage markers in doxorubicin-aged mice (Example 8-9)", "assay_type": "in vivo, C57BL6J mice", "settings": "LX-112 70 mg/kg oral daily 21 days, DOX without LX = 100%", "method": "(§1) After adapting 8-week-old male C57BL6J mice (purchased from KRIBB Laboratory Animal Resource Center) to the experimental environment for 1 week, doxorubicin, an anticancer drug, was administered intraperitoneally at a concentration of 10 mg/kg, and mice that were induced to age for more than 10 days were assigned to an experimental group and a control group. LX-112 was mixed with 0.5% CMC-Na solution (purchased from Sigma) and administered orally at a concentration of 70 mg/kg daily for 21 days. The control group was administered only the solution in the same volume. After drug administration was completed, the method described in each Example below was performed.\nThe amounts of urea and creatinine, markers of kidney damage, in serum collected from mice were measured using spectrophotometry in the same manner as in Example 7-8. […] The amount of each factor after aging was induced by treatment with the anticancer drug was calculated as 100% and compared it with the amount of each factor after treatment with LX-112."}, "[3]": {"experiment": "chlorhexidine gluconate-induced peritoneal fibrosis in mice (Example 6-2)", "assay_type": "in vivo, C57BL6J mice", "settings": "0.1% CHG 10 ml/kg i.p. every 2 days for 20 days; LX-112 70 mg/kg i.p. daily from day 9", "method": "After 8-week-old male C57BL6J mice (purchased from KRIBB Laboratory Animal Resource Center) were adapted to the experimental environment for 1 week, the mice were randomized into an experimental group and a control group. To induce peritoneal fibrosis, 0.1% chlorhexidine gluconate (CHG, purchased from Sigma) was dissolved in 15% ethanol phosphate buffer solution and administered intraperitoneally at a concentration of 10 ml/kg every 2 days for 20 days. From day 9, LX-112 was mixed with 0.5% CMC-Na solution (purchased from Sigma) and administered intraperitoneally at a concentration of 70 mg/kg every day. The control group (−) was administered only the solution in the same volume. On the 20th day, paraffin sections of peritoneal tissue prepared by fixation in 4% paraformaldehyde solution were stained with H/E (Hematoxylin/Eosin) and trichrome, and the thickness of the peritoneal mesothelial cell layer was measured under a light microscope."}, "IL6, MCP1": {"system": "IL6, MCP1", "experiment": "serum IL6 and MCP1 ELISA in naturally aged mice (Example 7-5)", "assay_type": "in vivo, C57BL6J mice", "settings": "LX-112 70 mg/kg oral daily 21 days", "method": "After 22-month-old female C57BL6J mice (purchased from KRIBB Laboratory Animal Resource Center) were adapted to the experimental environment for one week, the aged mice were randomized into an experimental group and a control group. 8-week-old mice that were not aged were used as controls. LX-112 was mixed with 0.5% CMC-Na solution (purchased from Sigma) and administered orally at a concentration of 70 mg/kg daily for 21 days. The control group was administered only the solution in the same volume. After drug administration was completed, the method described in each Example below was performed.\nSerum collected from mice was stored at −80° C. until use. The amounts of IL6 and MCP1, which are aging-related inflammation secretory factors (SASPs), were measured in serum using an enzyme-linked immunosorbent assay (ELISA Kit, purchased from R&D Systems)."}, "IL6, CXCL1, CXCL10, IL1β": {"system": "IL6, CXCL1, CXCL10, IL1β", "experiment": "SASP mRNA qRT-PCR in doxorubicin-aged mice (Example 8-6)", "assay_type": "in vivo, C57BL6J mice", "settings": "doxorubicin-aged mice, LX-112 70 mg/kg oral daily 21 days; DOX without LX = 100%", "method": "as §1\nUsing cDNA synthesized in the same manner as Example 7-6, qRT-PCR was performed and analyzed for aging-related inflammation and fibrosis secretory factors (SASP) such as IL6, CXCL1, CXCL10, and IL1β. […] Table 45 calculates the mRNA amount of each factor after aging was induced by treatment with the anticancer drug as 100% and compared it with the mRNA amount of each factor after treatment with LX-112."}, "[4]": {"system": "foreskin cells, replicative senescence (REP)", "experiment": "CellTiter-Glo cell viability of replicative senescent foreskin cells (Example 3-2)", "assay_type": "cell-based, human", "settings": "3 days"}, "p16, p21": {"system": "p16, p21", "experiment": "p16 and p21 mRNA qRT-PCR in obesity-aged (DIO) mice (Example 9-2)", "assay_type": "in vivo, C57BL6J mice", "settings": "LX-112 70 mg/kg oral daily 21 days, DIO without LX = 100%", "method": "15-week-old male C57BL6J mice (purchased from Jackson Laboratories), whose obesity was induced by a high-fat diet, were adapted to the experimental environment for one week, and then the mice were randomized into an experimental group and a control group. LX-112 was mixed with 0.5% CMC-Na solution (purchased from Sigma) and administered orally at a concentration of 70 mg/kg daily for 21 days. The control group was administered only the solution in the same volume. After drug administration was completed, the method described in each Example below was performed. Mice were sacrificed and the weight of adipose tissue in each area was measured.\nMice were sacrificed in the same manner as in Example 7-2, RNA was extracted from the organ tissue of each region, and qRT-PCR (quantitative real-time PCR) was performed and analyzed using the synthesized cDNA. […] Table 54 calculates the mRNA amounts of p16 and p21 after aging induced by obesity as 100% and compares them with the mRNA amounts of p16 and p21 after treatment with LX-112."}}, "data": [{"smiles": "COC(=O)c1ccc([C@H]2c3[nH]c4ccccc4c3C[C@H](C(=O)OC)N2C(=O)CCl)cc1", "note": "[LX-405]", "values": [{"measurement": "Survival (%)", "setting": "[1]; supernatant from No Cells", "value": "101.4 (±1.3) %"}, {"measurement": "Survival (%)", "setting": "[1]; supernatant from death-induced proliferating cells (LX-405 30 μM)", "value": "98.6 (±4.8) %"}, {"measurement": "Survival (%)", "setting": "[1]; supernatant from death-induced senescent cells (LX-405 30 μM)", "value": "105.2 (±4.9) %"}]}, {"smiles": "O=c1c2ccccc2[se]n1CCn1[se]c2ccccc2c1=O", "note": "[LX-112, 1,2-[bis(1,2-benzisoselenazolone-3(2H)-ketone)]ethane]", "values": [{"measurement": "Agtr1a mRNA (%)", "setting": "[2]", "value": "75 (±9) %"}, {"measurement": "Creatinine (%)", "setting": "[2]; serum", "value": "89 (±4) %"}, {"measurement": "Urea (%)", "setting": "[2]; serum", "value": "91.2 (±1.2) %"}, {"measurement": "Submesothelial Thickness (μm)", "setting": "[3]", "value": "43.1 (±10.4) μm"}, {"measurement": "IL6 (%)", "setting": "IL6, MCP1", "value": "63 (±12.8) %"}, {"measurement": "MCP1 (%)", "setting": "IL6, MCP1", "value": "58 (±9.8) %"}, {"measurement": "mRNA (%) CXCL1, Liver", "setting": "IL6, CXCL1, CXCL10, IL1β", "value": "68 (±21.1) %"}, {"measurement": "mRNA (%) CXCL1, eWAT", "setting": "IL6, CXCL1, CXCL10, IL1β", "value": "94.8 (±1.2)^ %"}, {"measurement": "mRNA (%) CXCL10, Liver", "setting": "IL6, CXCL1, CXCL10, IL1β", "value": "84 (±11.5) %"}, {"measurement": "mRNA (%) CXCL10, eWAT", "setting": "IL6, CXCL1, CXCL10, IL1β", "value": "74 (±11) %"}, {"measurement": "mRNA (%) IL1β, Liver", "setting": "IL6, CXCL1, CXCL10, IL1β", "value": "42 (±35.2) %"}, {"measurement": "mRNA (%) IL1β, eWAT", "setting": "IL6, CXCL1, CXCL10, IL1β", "value": "38 (±37) %"}, {"measurement": "mRNA (%) IL6, Liver", "setting": "IL6, CXCL1, CXCL10, IL1β", "value": "42 (±23.5) %"}, {"measurement": "mRNA (%) IL6, eWAT", "setting": "IL6, CXCL1, CXCL10, IL1β", "value": "48.6 (±12.5) %"}, {"measurement": "Survival (%)", "setting": "[4]; LX-112 1.1 μM", "value": "59 (±6) %"}, {"measurement": "Survival (%)", "setting": "[4]; LX-112 10 μM", "value": "1 (±0.9) %"}, {"measurement": "p16 mRNA (%) Liver", "setting": "p16, p21", "value": 71.3, "unit": "%"}, {"measurement": "p16 mRNA (%) Lung", "setting": "p16, p21", "value": 81, "unit": "%"}, {"measurement": "p16 mRNA (%) Muscle", "setting": "p16, p21", "value": 77.8, "unit": "%"}, {"measurement": "p16 mRNA (%) Skin", "setting": "p16, p21", "value": 79.1, "unit": "%"}, {"measurement": "p16 mRNA (%) asWAT", "setting": "p16, p21", "value": 84.1, "unit": "%"}, {"measurement": "p16 mRNA (%) eWAT", "setting": "p16, p21", "value": 61.2, "unit": "%"}, {"measurement": "p16 mRNA (%) iBAT", "setting": "p16, p21", "value": 89.2, "unit": "%"}, {"measurement": "p16 mRNA (%) iWAT", "setting": "p16, p21", "value": 79.1, "unit": "%"}, {"measurement": "p21 mRNA (%) Liver", "setting": "p16, p21", "value": 62.9, "unit": "%"}, {"measurement": "p21 mRNA (%) Lung", "setting": "p16, p21", "value": 79.3, "unit": "%"}, {"measurement": "p21 mRNA (%) Muscle", "setting": "p16, p21", "value": 73.2, "unit": "%"}, {"measurement": "p21 mRNA (%) Skin", "setting": "p16, p21", "value": 78.1, "unit": "%"}, {"measurement": "p21 mRNA (%) asWAT", "setting": "p16, p21", "value": 82.1, "unit": "%"}, {"measurement": "p21 mRNA (%) eWAT", "setting": "p16, p21", "value": 67.2, "unit": "%"}, {"measurement": "p21 mRNA (%) iBAT", "setting": "p16, p21", "value": 70, "unit": "%"}, {"measurement": "p21 mRNA (%) iWAT", "setting": "p16, p21", "value": 71.2, "unit": "%"}]}]}
